The text below walks through data of patent publication US20190183922A1, “NOVEL ACTIVE IMMUNOMODULATORY AGENT AND COMPOSITION CONTAINING SAME” (UNIVERSITE CLERMONT AUVERGNE, priority 2016, published 2019).

Values joined by “and” are separate entries in the source; they are usually repeats but may differ in a detail not shown here. Identical values can stand only once.

The test system of the experiment is co-culture of human dermal endothelial cells (HMVECs) and normal human dermal fibroblasts (NHDFs). Nature of the experiment: Formation of pseudotubes in an HMVEC+NHDF co-culture (anti-vWF immunolabelling, image analysis). Type of experiment: cell-based. The procedure: The effects of the high-molecular-weight sulphated polysaccharide (HMWP) on the formation of pseudotubes was studied in a co-culture of human dermal endothelial cells (HMVECs) and normal human dermal fibroblasts (NHDFs), in basal condition or stimulated by VEGF (analysis by immunolabelling in situ).
The HMVEC and NHDF cells in co-culture were seeded in 96-well plates and cultured for 24 hours in culture medium.
The culture medium used is as follows: • EBM-2 (Endothelial cell basal medium 2) supplemented with 5% foetal calf serum (FCS), rhEGF, rhFGF, R3 IGF-1, hydrocortisone, vitamin C, gentamycin, • DMEM supplemented with 2 mM L-glutamine, 50 U/ml penicillin, 50 μg/ml streptomycin and 10% FCS.
The medium was then replaced with test medium containing or not containing (control) the compound to be tested and/or the VEGF inductor reference tested at 100 ng/ml; the compound was tested simultaneously in basal and stimulated condition (in the absence and in the presence of VEGF).
The test medium used was as follows: • EBM-2 (Endothelial cell basal medium 2) supplemented with rhEGF, rhFGF, R3 IGF-1, hydrocortisone, vitamin C, gentamycin, • DMEM supplemented with 2 mM L-glutamine, 50 U/ml penicillin, 50 μg/ml streptomycin and 1% FCS.
The cells were then incubated for 7 days, repeating the treatment after incubating for 72 hours. All the experimental conditions were produced in triplicate (n=3).
After incubation, the culture medium was removed and the cells were rinsed, fixed and permeabilized. The cells were then labelled with anti-VWF (Von Willebrand Factor) primary antibody. […] Simultaneously, the cell nuclei were coloured with Hoechst 33258 (bis-benzimide).
The formation of the pseudotubes was observed using a NIKON Diaphot 300 microscope (×4 objective lens). The digital images (1 photo per well) were then recorded with a NIKON DS-Ri1 camera and the NIS-Elements 4.13.04 software.
The labelling was quantified by measuring the entire surface of the pseudotubes using ImageJ software.
The formation of pseudotubes in the co-culture of endothelial cells (HMVECs) and dermal fibroblasts (NHDFs) after incubating for 7 days was measured by image analysis following immunolabelling with an anti-vWF antibody, the vWF being specifically expressed by the HMVEC cells.
The stimulation percentage is calculated according to the following formula: […]
The inhibition percentage is calculated according to the following formula: […]

Where [1] appears, read: VEGF inductor reference 100 ng/ml, 7 days.

Consider VEGF, for which, under setting [1], the “% Control” value is 1759% and the “% Stimulation” value worked out at 1659%. For the same substance, the “Surface of the pseudotubes” value (VEGF inductor reference 100 ng/ml, 7 days, individual wells) was 2.15 mm^2 and 2.52 mm^2 and 1.84 mm^2. The “Average Surface” value (VEGF inductor reference 100 ng/ml, 7 days, n=3) is 2.17 mm^2. Where the note is “reference VEGF 100 ng/ml”, the “Organization of the endothelial cells into pseudotubes” value was “clearly led to an organization of the endothelial cells into pseudotubes”.
